Here are results for 1 compound from article PMC4431182 (2015).

Holding throughout (assay): electrochemical aptamer-based sensor, square wave voltammetry
For assay [1], the system named is 7UG (RNA, aptamer) CUUGGUGUAGGUAAUGAG
The conditions noted are these: Na+ 100 mM, Mg2+ 5 mM; 20 mM Tris, pH 7.4; surface-immobilised aptamer; no quantitative binding, -9% signal change at 30 µM tobramycin.

For assay [2], the system named is High-Gain Parent (RNA, aptamer) CUUGGUUUAGGUAAUGAG
To be noted: Na+ 100 mM, Mg2+ 5 mM; 20 mM Tris, pH 7.4; surface-immobilised aptamer; apparent.

The subject of assay [3] is 3-UAC (RNA, aptamer) CUUGGUUUAGGUAAUGAGUAC
To be noted: Na+ 100 mM, Mg2+ 5 mM; 20 mM Tris, pH 7.4; surface-immobilised aptamer; apparent.

For assay [4], the system named is 7UC (RNA, aptamer) CUUGGUCUAGGUAAUGAG
To be noted: Na+ 100 mM, Mg2+ 5 mM; 20 mM Tris, pH 7.4; surface-immobilised aptamer; no quantitative binding, 3% signal change at 30 µM tobramycin.

The test system of assay [5] is 16GU (RNA, aptamer) CUUGGUUUAGGUAAUUAG
To be noted: Na+ 100 mM, Mg2+ 5 mM; 20 mM Tris, pH 7.4; surface-immobilised aptamer; apparent.

With `NC[C@H]1O[C@H](O[C@H]2[C@H](O)[C@@H](O[C@H]3O[C@H](CO)[C@@H](O)[C@H](N)[C@H]3O)[C@H](N)C[C@@H]2N)[C@H](N)C[C@@H]1O`, the binding entry in assay [1] and in assay [4] was “no” each time. In assay [2], the KD turned out to be 80 ± 10 nM. Moreover, the Kd in assay [3] turned out to be 170 ± 30 nM; in assay [5] it was 3000 ± 400 nM.
